The text below walks through data of patent US7709486B2, “CXCR4 antagonists” (Genzyme Corporation, priority 1998, dated 2010).

In the series the test system is collagen-induced arthritis (CIA).

Description: The experiments were performed in 8- to 12-week old mice, but in each experiment, the mutant and wild-type mice were age-matched with a 5 day limit. The male to female ratio was kept between 0.8 and 1.3 in each experimental group.
Native chicken collagen type II (EPC, Owensvillle, Mo.) was dissolved in 0.05 M acetic acid at 2 mg/ml by stirring overnight at 6° C., and emulsified in an equal volume of incomplete (IFA) or complete Freund's adjuvant (CFA) containing 1.5 mg/ml heat killed Mycobacterium butyricum (Difco, Detroit, Mich.). Mice were sensitized with a single 100 μl intradermal injection of the emulsion at the base of the tail. Mice were examined daily for signs of arthritis. The disease severity was recorded following a scoring system for each limb. Score 0: normal; score 1: redness and/or swelling in one joint; score 2: redness and/or swelling in more than one joint; score 3: redness and/or welling in the entire paw; score 4: deformity and/or ankylosis.
Spleens and fore and hind limbs were fixed in buffered saline—B5fixative (10% formalin with quicksilver). […] Limbs were subsequently decalcified overnight with formic acid. […] Severity of arthritis was evaluated using three parameters: infiltration of mono- and polymorphonuclear cells, hyperplasia of the synovium and parmus formation. Each parameter was scored on a scale from 0 to 3 (absent; weak, moderate and severe).

As for `c1cc(CN2CCCNCCNCCCNCC2)ccc1CN1CCCNCCNCCCNCC1` [AMD3100, 1,1′-[1,4-phenylenebis(methylene)]bis-1,4,8,11-tetraazacyclotetradecane], the “Body weight loss compared with control animals” value (collagen-injected mice, treated) is “did not demonstrate any significant body weight loss”. Moreover, the “Time until the single affected treated animal developed arthritic pathology” value (post-treatment) is over 20 days.
